Measured values published in patent US20180264134A1, “A COMPOSITION OF GOLD NANOPARTICLES HAVING ANTIMICROBIAL PEPTIDES BOUND ON THEIR SURFACE FOR USE THE TREATMENT OF WOUND HEALING OR IN THE TREATMENT OF ISCHEMIC OR VASCULAR DISEASES OR IN THE TREATMENT OF SKIN DISORDERS” (priority 2015, published 2018).

What was measured:
[1] = tested on: platelets; assay: Platelet activation (CD62P expression) in whole peripheral blood; type: cell-based, human; conditions: positive control
Procedure: In an embodiment, to evaluate the hemocompatibility of Au NPs and LL37-Au NPs, the induction of platelet activation was tested. Platelet activation was measured by the flow cytometric quantification of CD62P (P-selectin) expression. CD62P is a component of the α-granule membrane of resting platelets that is expressed on the platelet surface membrane only after α-granule secretion, which occurs during platelet activation. Platelets are very sensitive to in vitro activation and aggregation, therefore, the less they are manipulated the better, for this reason the whole peripherical blood (diluted in tyrode buffer) were incubated with the NPs instead of isolating platelet rich plasma. […] As positive control it was used ADP, a platelet activator, which induced the activation of 40% of the platelets (FIG. 13). […] In contrast, HUVECs were more sensitive to soluble LL37 than HaCaT showing cytotoxic effect at a concentration of 10 μg/mL and 30 μg/mL, respectively. Furthermore, LL37-Au NPs have lower cytotoxic and impact on membrane potential than soluble peptide that for the same concentration of LL37 (up to 100 μg/mL). Differences in the cell membrane composition between HUVECs and HaCaT might account for the differences between endothelial and epithelial cells response on LL37 cytotoxicity as supported by the result of membrane potential analysis (FIG. 13d).

[2] = tested on: clathrin-mediated endocytosis; assay: FITC-labelled transferrin uptake (validation of dynasore); type: cell-based, human; conditions: 80 μM, 30 min pre-incubation, keratinocytes
Procedure: In an embodiment the HaCaT keratinocyte cells were cultured on 24 well plates (1×10^6 cells/well) and inhibited by one of the following chemicals during 30 min before adding a suspension of Rhodamine-labelled NPs (15 μg/mL): dynasor (100 μM), cytochalasin D (100 μM), nocodazole (25 uM), filipin III (1 μM) and polyinosinic acid (100 μg/mL), 5-(N-ethyl-N-isopropyl)amiloride (EIPA), dextran sulfate. The inhibitor concentrations were based in values reported in literature and further validated by us to have no cytotoxic effect over the period of the assay (6 h), as confirmed by viability assay. The incubation of the cells with NPs for different times was performed in the presence of the inhibitor. As controls, HaCaT keratinocyte cells without NPs and cells incubated with NPs without inhibitor were used. At the end of each time point, cells were centrifuged at 1300 rpm, 20° C. for 5 min, washed 3 times with cold PBS and then resuspended in PBS containing 2.5% FBS (500 μL) for FACS analysis. A total of 10,000 events were obtained per measurement. To validate the inhibitory activity of dynasor it were performed uptake studies of FITC-labeled transferrin, known to selectively enter cells via clathrin-mediated endocytosis. […] Cells were then evaluated as before.

Compound | activated platelets [1] [%] | internalisation of FITC-labelled transferrin [2]
Nc1ncnc2c1ncn2[C@@H]1O[C@H](COP(=O)(O)OP(=O)(O)O)[C@@H](O)[C@H]1O [ADP] | 40 | 
O=C(N/N=C/c1ccc(O)c(O)c1)c1cc2ccccc2cc1O [Dynasore, dynasore] |  | inhibits the internalisation of transferrin
